Tested on: H9P83 cells on MATRIGEL and H9P44 cells on MEFs
Assay: Microarray analysis of gene expression after definitive endoderm formation (Table IV)
Format: cell-based, human
Conditions: after 5 days of treatment
Method: Controls for each group included cells plated on […]-coated dishes and cultured in MEF-conditioned medium or cells plated on MEFs and cultured in ES medium.
Sample preparation, hybridization, and image analysis were performed according to the Affymetrix Human Genome U133 Plus 2.0 Array. Following normalization and a log transformation, data analysis was performed using OmniViz® software (MA) and […] (VizXLabs, WA). The variability within each treatment and among the different treatments was compared using the Pearson correlation coefficient. […] Significant differences in gene expression between the samples were evaluated using analysis of variance and an F-test with adjusted P-value (Benjamini and Hochberg correction) of ≤0.05. Only genes with a present call were included in the analysis.

[1] = H9P44 on MEFs-DE stage, undifferentiated H9P44 on MEFs 2.17
[2] = H9P44 on MEFs-DE stage, undifferentiated H9P44 on MEFs 2.18
[3] = H9P44 on MEFs-DE stage, undifferentiated H9P44 on MEFs 3.80
[4] = H9P83 on Matrigel-DE stage, undifferentiated H9P83 on Matrigel 1.38

Activin A: a member of the TGFβ superfamily; growth factor (R&D Systems) used to differentiate human embryonic stem cells
expression of HCN1 (BM682352, cDNA FLJ37204 fis, clone BRALZ2006976) (H9P44 on MEFs-DE stage): −3.88 | expression of INDO (M34455, indoleamine 2,3-dioxygenase (IDO)) (H9P44 on MEFs-DE stage): 1.69 | expression of JAKMIP2 (BU729850, hypothetical protein LOC153469) (H9P44 on MEFs-DE stage): −1.56 | expression of LOC157627 (AL832535, cDNA DKFZp547J1816) (H9P44 on MEFs-DE stage): −1.50 | expression of PCSK1 (NM_000439, proprotein convertase subtilisinkexin type 1) (H9P44 on MEFs-DE stage): −3.19 | expression of SMOC2 (AB014737, mRNA for SMAP-2b) (H9P44 on MEFs-DE stage): −2.27 | SCNN1G (AI985987) gene expression (H9P44 on MEFs-DE stage, undifferentiated H9P44 on MEFs 0.12): −2.70 | TMEM16A (NM_018043) gene expression (H9P44 on MEFs-DE stage, undifferentiated H9P44 on MEFs 0.25): −3.93 | LOC646326 (BE972639) gene expression (H9P44 on MEFs-DE stage, undifferentiated H9P44 on MEFs 0.33): −2.24 | COL14A1 (AI693516) gene expression (H9P44 on MEFs-DE stage, undifferentiated H9P44 on MEFs 0.96): −1.81 | AK5 (BG169832) gene expression (H9P44 on MEFs-DE stage, undifferentiated H9P44 on MEFs 1.03): −1.94 | C9orf39 (AA280904) gene expression (H9P44 on MEFs-DE stage, undifferentiated H9P44 on MEFs 1.13): −0.78 | LOC200230 (AI056877) gene expression (H9P44 on MEFs-DE stage, undifferentiated H9P44 on MEFs 1.15): −1.35 | CTNND2 (U96136) gene expression (H9P44 on MEFs-DE stage, undifferentiated H9P44 on MEFs 1.18): −1.17 | SDK2 (N23651) gene expression (H9P44 on MEFs-DE stage, undifferentiated H9P44 on MEFs 1.27): −2.07 | SAMHD1 (AF147427) gene expression (H9P44 on MEFs-DE stage, undifferentiated H9P44 on MEFs 1.35): −2.30 | PAH (NM_000277) gene expression (H9P44 on MEFs-DE stage, undifferentiated H9P44 on MEFs 1.46): −0.42 | AL120674 (ESTs) gene expression (H9P44 on MEFs-DE stage, undifferentiated H9P44 on MEFs 1.55): −2.20 | AI742043 (ESTs) gene expression (H9P44 on MEFs-DE stage, undifferentiated H9P44 on MEFs 1.77): −1.45 | DAZL (NM_001351) gene expression (H9P44 on MEFs-DE stage, undifferentiated H9P44 on MEFs 1.93): −0.73 | PSMB9 (NM_002800) gene expression (H9P44 on MEFs-DE stage, undifferentiated H9P44 on MEFs 2.05): −1.43 | BF698797 (ESTs) gene expression (H9P44 on MEFs-DE stage, undifferentiated H9P44 on MEFs 2.07): −0.40 | AF107846 (neuroendocrine-specific Golgi protein p55 (XLalphas) gene) expression (H9P44 on MEFs-DE stage, undifferentiated H9P44 on MEFs 2.12): −2.56 | CHST8 (NM_022467) gene expression [1]: 0.48 | NPTX1 (NM_002522) gene expression [1]: −1.19 | FGF19 (AF110400) gene expression [2]: −0.91 | PCDH8 (NM_002590) gene expression [2]: 0.12 | LOC157627 (AF052108) gene expression (H9P44 on MEFs-DE stage, undifferentiated H9P44 on MEFs 2.26): −1.33 | C10orf96 (BC044830) gene expression (H9P44 on MEFs-DE stage, undifferentiated H9P44 on MEFs 2.28): −1.39 | CR2 (NM_001877) gene expression (H9P44 on MEFs-DE stage, undifferentiated H9P44 on MEFs 2.35): −1.44 | SAMHD1 (NM_015474) gene expression (H9P44 on MEFs-DE stage, undifferentiated H9P44 on MEFs 2.89): 0.29 | PSMB8 (U17496) gene expression (H9P44 on MEFs-DE stage, undifferentiated H9P44 on MEFs 3.30): 0.09 | HHIP (AK098525) gene expression (H9P44 on MEFs-DE stage, undifferentiated H9P44 on MEFs 3.32): −0.11 | KCNG3 (NM_133329) gene expression (H9P44 on MEFs-DE stage, undifferentiated H9P44 on MEFs 3.67): 0.26 | STXBP6 (N21096) gene expression (H9P44 on MEFs-DE stage, undifferentiated H9P44 on MEFs 3.69): 1.14 | NMI (NM_004688) gene expression [3]: 1.13 | RMST (BE468066) gene expression [3]: 1.63 | TOX (AI961231) gene expression (H9P44 on MEFs-DE stage, undifferentiated H9P44 on MEFs 4.00): 1.13 | C20orf118 (BF437747) gene expression (H9P44 on MEFs-DE stage, undifferentiated H9P44 on MEFs 4.57): 1.75 | C20orf118 (AV715309) gene expression (H9P44 on MEFs-DE stage, undifferentiated H9P44 on MEFs 4.76): 1.48 | FEZ1 (NM_005103) gene expression (H9P44 on MEFs-DE stage, undifferentiated H9P44 on MEFs 4.98): 2.20 | SCG5 (NM_003020) gene expression (H9P44 on MEFs-DE stage, undifferentiated H9P44 on MEFs 5.01): 3.11 | LECT1 (NM_007015) gene expression (H9P44 on MEFs-DE stage, undifferentiated H9P44 on MEFs 5.36): 1.83 | IFIH1 (NM_022168) gene expression (H9P44 on MEFs-DE stage, undifferentiated H9P44 on MEFs −0.10): −2.15 | ATP5S (BE968806) gene expression (H9P44 on MEFs-DE stage, undifferentiated H9P44 on MEFs −0.34): −4.73 | PAK7 (AB040812) gene expression (H9P44 on MEFs-DE stage, undifferentiated H9P44 on MEFs −0.49): −4.18 | expression of HCN1 (BM682352, cDNA FLJ37204 fis, clone BRALZ2006976) (H9P83 on Matrigel-DE stage): −4.38 | expression of INDO (M34455, indoleamine 2,3-dioxygenase (IDO)) (H9P83 on Matrigel-DE stage): 1.58 | expression of JAKMIP2 (BU729850, hypothetical protein LOC153469) (H9P83 on Matrigel-DE stage): 0.43 | expression of LOC157627 (AL832535, cDNA DKFZp547J1816) (H9P83 on Matrigel-DE stage): −0.04 | expression of PCSK1 (NM_000439, proprotein convertase subtilisinkexin type 1) (H9P83 on Matrigel-DE stage): −2.68 | expression of SMOC2 (AB014737, mRNA for SMAP-2b) (H9P83 on Matrigel-DE stage): −2.04 | LOC646326 (BE972639) gene expression (H9P83 on Matrigel-DE stage, undifferentiated H9P83 on Matrigel 0.00): −2.71 | LOC200230 (AI056877) gene expression (H9P83 on Matrigel-DE stage, undifferentiated H9P83 on Matrigel 0.11): −2.37 | C9orf39 (AA280904) gene expression (H9P83 on Matrigel-DE stage, undifferentiated H9P83 on Matrigel 0.23): −1.58 | COL14A1 (AI693516) gene expression (H9P83 on Matrigel-DE stage, undifferentiated H9P83 on Matrigel 0.39): −1.63 | AF107846 (neuroendocrine-specific Golgi protein p55 (XLalphas) gene) expression (H9P83 on Matrigel-DE stage, undifferentiated H9P83 on Matrigel 0.44): −0.25 | AK5 (BG169832) gene expression (H9P83 on Matrigel-DE stage, undifferentiated H9P83 on Matrigel 0.62): −2.79 | PAH (NM_000277) gene expression (H9P83 on Matrigel-DE stage, undifferentiated H9P83 on Matrigel 0.65): −1.08 | CTNND2 (U96136) gene expression (H9P83 on Matrigel-DE stage, undifferentiated H9P83 on Matrigel 0.78): −1.33 | BF698797 (ESTs) gene expression (H9P83 on Matrigel-DE stage, undifferentiated H9P83 on Matrigel 0.93): −0.74 | AI742043 (ESTs) gene expression (H9P83 on Matrigel-DE stage, undifferentiated H9P83 on Matrigel 0.94): −0.76 | AL120674 (ESTs) gene expression (H9P83 on Matrigel-DE stage, undifferentiated H9P83 on Matrigel 1.00): −1.35 | SAMHD1 (AF147427) gene expression (H9P83 on Matrigel-DE stage, undifferentiated H9P83 on Matrigel 1.33): −0.99 | C10orf96 (BC044830) gene expression [4]: −0.32 | PSMB9 (NM_002800) gene expression [4]: 0.27 | LOC157627 (AF052108) gene expression (H9P83 on Matrigel-DE stage, undifferentiated H9P83 on Matrigel 1.49): 0.22 | CR2 (NM_001877) gene expression (H9P83 on Matrigel-DE stage, undifferentiated H9P83 on Matrigel 1.50): −0.43 | DAZL (NM_001351) gene expression (H9P83 on Matrigel-DE stage, undifferentiated H9P83 on Matrigel 1.69): −0.81 | HHIP (AK098525) gene expression (H9P83 on Matrigel-DE stage, undifferentiated H9P83 on Matrigel 1.76): −0.57 | CHST8 (NM_022467) gene expression (H9P83 on Matrigel-DE stage, undifferentiated H9P83 on Matrigel 2.11): −0.51 | FGF19 (AF110400) gene expression (H9P83 on Matrigel-DE stage, undifferentiated H9P83 on Matrigel 2.12): −0.08 | KCNG3 (NM_133329) gene expression (H9P83 on Matrigel-DE stage, undifferentiated H9P83 on Matrigel 2.18): 0.74 | NPTX1 (NM_002522) gene expression (H9P83 on Matrigel-DE stage, undifferentiated H9P83 on Matrigel 2.35): −0.48 | STXBP6 (N21096) gene expression (H9P83 on Matrigel-DE stage, undifferentiated H9P83 on Matrigel 2.42): 0.99 | SAMHD1 (NM_015474) gene expression (H9P83 on Matrigel-DE stage, undifferentiated H9P83 on Matrigel 2.63): 0.57 | FEZ1 (NM_005103) gene expression (H9P83 on Matrigel-DE stage, undifferentiated H9P83 on Matrigel 2.80): 2.08 | RMST (BE468066) gene expression (H9P83 on Matrigel-DE stage, undifferentiated H9P83 on Matrigel 3.26): 1.49 | TOX (AI961231) gene expression (H9P83 on Matrigel-DE stage, undifferentiated H9P83 on Matrigel 3.28): 1.23 | PSMB8 (U17496) gene expression (H9P83 on Matrigel-DE stage, undifferentiated H9P83 on Matrigel 3.43): 0.46 | NMI (NM_004688) gene expression (H9P83 on Matrigel-DE stage, undifferentiated H9P83 on Matrigel 3.54): 0.96
